Holding throughout (test): cAMP accumulation assay (LANCE Ultra cAMP kit), GIPR WT, mutant or modified constructs
Holding throughout (type): cell-based
Holding throughout (set-up): acylated tirzepatide to the full-length or modified; Flag; expressed in transfected cells; host or cells: HEK293T
A general note: Changes in cAMP serve as a functional read-out for many G protein-coupled receptors.

Assay [1] concerns the target T1, GIPR (Homo sapiens, UniProt P48546, Q30A).
T1 sequence (P48546 22-466 Q30A): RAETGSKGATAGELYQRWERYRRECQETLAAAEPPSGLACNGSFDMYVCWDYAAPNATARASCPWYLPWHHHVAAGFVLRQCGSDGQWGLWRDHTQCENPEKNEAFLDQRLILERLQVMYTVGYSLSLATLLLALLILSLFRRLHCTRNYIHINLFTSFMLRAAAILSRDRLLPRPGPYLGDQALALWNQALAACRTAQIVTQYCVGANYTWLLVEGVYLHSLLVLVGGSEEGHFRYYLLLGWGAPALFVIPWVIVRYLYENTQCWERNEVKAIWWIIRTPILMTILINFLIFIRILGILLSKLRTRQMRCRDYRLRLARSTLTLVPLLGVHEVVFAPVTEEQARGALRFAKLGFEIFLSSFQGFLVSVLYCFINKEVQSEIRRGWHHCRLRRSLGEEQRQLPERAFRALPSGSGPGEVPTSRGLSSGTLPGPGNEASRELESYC
The following applies: GIPR Q30A, HEK293T. In short, it runs like this: (§1)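 HEK293T cells transiently transfected with human GIPR WT or mutant constructs (pcDNA3.1), used after 24 h. The cells were stimulated with peptide agonists for 40 min at RT in HBSS with 5 mM HEPES, 0.1% BSA or casein, and 0.5 mM IBMX. cAMP was read by LANCE Ultra TR-FRET (Eu-cAMP tracer/ULight anti-cAMP, 1 h RT, 620/650 nm).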

The target of assay [2] is T2, GIPR (Homo sapiens, UniProt P48546, R196A).
T2 sequence (P48546 22-466 R196A): T1 sequence (P48546 22-466 Q30A) with A9Q, R175A
The following applies: GIPR R196A, HEK293T. In short, it runs like this:
as §1

The target of assay [3] is T3, GIPR (Homo sapiens, UniProt P48546, W209A).
T3 sequence (P48546 22-466 W209A): T1 sequence (P48546 22-466 Q30A) with A9Q, W188A
The following applies: GIPR W209A, HEK293T. The procedure, abridged:
as §1

[4] abbreviates: read-out: cAMP pEC50 (converted).

Changes are numbered by the printed parent chain.

What is called Emax is the greatest response seen or fitted, relative to the assay's reference.

Take `CCCCCCCCCCCCCCCC(=O)N[C@@H](CCC(=O)NCCCC[C@H](NC(=O)[C@H](CC(=O)O)NC(=O)[C@H](CO)NC(=O)[C@@H](NC(=O)[C@H](Cc1ccccc1)NC(=O)[C@@H](NC(=O)CNC(=O)[C@H](CCC(N)=O)NC(=O)C(C)(C)NC(=O)[C@@H](N)Cc1c[nH]cn1)[C@@H](C)O)[C@@H](C)O)C(=O)N[C@@H](CO)C(=O)N[C@@H](CCCCN)C(=O)N[C@@H](Cc1ccc(O)cc1)C(=O)N[C@@H](CC(C)C)C(=O)N[C@@H](CC(=O)O)C(=O)N[C@@H](CCC(=O)O)C(=O)N[C@@H](CCCNC(=N)N)C(=O)N[C@@H](C)C(=O)N[C@@H](C)C(=O)N[C@@H](CCC(N)=O)C(=O)N[C@@H](CC(=O)O)C(=O)N[C@@H](Cc1ccccc1)C(=O)N[C@H](C(=O)N[C@@H](CCC(N)=O)C(=O)N[C@@H](Cc1c[nH]c2ccccc12)C(=O)N[C@@H](CC(C)C)C(=O)N[C@@H](CC(C)C)C(=O)N[C@@H](CC(=O)O)C(=O)NCC(=O)NCC(=O)N1CCC[C@H]1C(=O)N[C@@H](CO)C(=O)N[C@@H](CO)C(=O)NCC(=O)N[C@@H](C)C(=O)N1CCC[C@H]1C(=O)N1CCC[C@H]1C(=O)N1CCC[C@H]1C(=O)N[C@@H](CO)C(N)=O)C(C)C)C(=O)O` [Peptide 20]: the EC50 at GIPR [1] (setting [4]) was 0.0427 nM; on GIPR [2] (setting [4]) it was 0.0468 nM; on GIPR [3] (setting [4]), 0.00363 nM. In addition, the maximal effect (Emax) came out at 100 ± 1.79% on GIPR [1] (HEK-293T), 98.5 ± 1.43% at GIPR [2] (HEK-293T) and 100 ± 1.45% at GIPR [3] (HEK-293T).

For the origin of these results see PMC8881610 (Nature Communications, 2022).
